Where two headings read alike, the source gives them in different places.
Assays:
[1] = Zeta potential of lipid nanoparticles; type: physicochemical
Experimental: (§1) The average particle size (number average value), ζ-average particle size, and polydispersity index (PdI) of the lipid nanoparticles in PBS(-) (pH 7.4), and the zeta potential in 10 mM HEPES buffer (pH 7.4) were measured using an analyzer "Zetasizer Nano ZS ZEN3600" (manufactured by Malvern) utilizing dynamic light scattering.

[2] = Encapsulation rate of lipid nanoparticles (Ribogreen); type: physicochemical
Experimental: The encapsulation rate of the lipid nanoparticles was determined by measuring the amount of encapsulated nucleic acid (mRNA) using Ribogreen (manufactured by Life Technologies), which is an RNA intercalator. The mRNA amount was quantified based on a calibration curve prepared from a series of diluted mRNA solutions at known concentrations.
Specifically, 10 mM HEPES buffer (pH 7.4), 10 w/v% Triton X-100, and Ribogreen were mixed at 978.8 µL, 20 µL, and 1.25 µL per 10 wells, respectively, to obtain a Triton(+) buffer. A Triton(-) buffer was obtained in replacing Triton X-100 with 10 mM HEPES buffer (pH 7.4). 100 µL/well of the sample was added to a black 96-well plate for fluorescence measurement, and 100 µL/well of Triton(+) buffer or Triton(-) buffer was added. After the plate was gently shaken on a shaking incubator (SI-300, manufactured by AS ONE) (700 rpm, 30 seconds), the fluorescence intensity of each well was measured using a microplate reader (VARIOSKAN LUX, manufactured by Thermo Fisher Scientific) (wavelength Ex/Em=500 nm/525 nm), and the nucleic acid encapsulation rate (%) was calculated.

[3] = Average particle size and polydispersity index of lipid nanoparticles (dynamic light scattering); type: physicochemical
Experimental: as §1

[4] = lipid nanoparticles, tns
Experimental: (§4) The apparent pKa of the lipid nanoparticles was measured using p-toluenesulfonic acid (TNS). First, TNS (final concentration: 0.75 µM) and lipid nanoparticles (final concentration: 30 µM) were mixed in a buffer (200 mL) adjusted to each pH (pH 3.5 to 9.5). As the buffer, 20 mM citrate buffer, 20 mM sodium phosphate buffer, or 20 mM Tris-HCl buffer containing 130 mM NaCl was used. The fluorescence intensity of the prepared mixture was measured using a fluorescence spectrophotometer (Varioskan Lux, manufactured by Thermo Fisher Scientific) with the settings of λex=321 nm and λem=447 nm. Among the measured values, the highest value and the lowest value were set as 100% and 0% ionization degrees, respectively, and the pH showing a 50% ionization degree was calculated as the apparent pKa. The content ratio (%) of cationically charged pH-sensitive cationic lipid was calculated using the Henderson-Hasselbalch equation.

[5] = test system: liver; assay: EGFP expression in liver tissue sections of mice administered EGFP mRNA-loaded lipid nanoparticles (confocal microscopy); type: in vivo, Balb/c mice; details: Example 27, Fig. 6; EGFP mRNA-loaded lipid nanoparticles TxT/DSPC/chol/PEG-DMG=50/3/47/1.5 (mol%); 24 hours post-administration
Experimental: Subsequently, each EGFP mRNA-loaded lipid nanoparticle was administered to Balb/c mice at a dose of 0.2 mg mRNA/kg. At 23 hours and 50 minutes post-administration, fluorescently labeled lectin (DyLight-649 Lycopersicon (Tomato) Lectin) was intravenously injected via the tail vein at 40 µg/mouse to fluorescently label vascular endothelial cells. At 24 hours after administration of the lipid nanoparticles, the mice were euthanized, and their livers were collected to prepare tissue sections. For nuclear staining, the tissue sections were immersed in a nuclear staining solution (1 µg/mL Hoechst 33342 dissolved in PBS(-)), cooled on ice, and incubated for at least 30 minutes in the dark. The stained tissue sections were then observed using a confocal laser scanning microscope. Subsequently, in the same manner as Example 26, each EGFP mRNA-loaded lipid nanoparticle was administered to Balb/c mice. At 23 hours and 50 minutes post-administration, fluorescently labeled lectin was administered. At 24 hours after administration of the lipid nanoparticles, the mice were euthanized, and their livers were collected to prepare tissue sections. Each tissue section was observed using a confocal laser scanning microscope. In the figure, the upper panels show fluorescence images of EGFP, and the lower panels show fluorescence images of vascular endothelial cells (fluorescently labeled lectin).

[6] = test system: liver; assay: Fluc activity in the liver of mice administered Fluc mRNA-loaded lipid nanoparticles; type: in vivo, BALB/c mice; details: Example 31, Fig. 10; Fluc mRNA-loaded lipid nanoparticles containing 3 mol% DSPC; N = 3
Experimental: (§2) Lipid nanoparticles were administered to mice by intravenous injection into the tail vein using a 27G needle. Unless otherwise specified, BALB/c mice (4 to 5 weeks old, female) were used.
(§3) First, BALB/c mice (female, 4 weeks old) were intravenously injected with lipid nanoparticles encapsulating Fluc mRNA (Fluc mRNA-loaded lipid nanoparticles) at a dose of 0.1 mg mRNA/kg. Six hours after intravenous injection, the mice were euthanized, each tissue was collected, frozen in liquid nitrogen, and stored at -80°C. The tissues were homogenized in passive lysis buffer (manufactured by Promega) using a bead-type cell disruptor (Micro Smash MS-100R, manufactured by TOMY Seiko). Tissue debris was removed by centrifugation, and the supernatant was collected. Fluc activity in the supernatant was measured using the Luciferase Assay System (E1500, manufactured by Promega) according to the manufacturer's protocol. Luminescence was measured using a luminometer (Luminescencer-PSN, manufactured by ATTO). Protein concentration was determined using a commercially available assay kit (BCA Protein Assay Kit, manufactured by Pierce). Fluc activity was expressed as relative light units (RLU) per mg of protein.
Subsequently, lipid nanoparticles encapsulating Fluc mRNA prepared using TxT-5-5A10, TxT-5-5A12, TxT-5-5A12β, TxT-5-5A14, and TxT-5-5A16 were administered to mice to evaluate luciferase expression levels (Fluc activity) in various tissues. Specifically, each Fluc mRNA-loaded lipid nanoparticle was administered to Balb/c mice at a dose of 0.1 mg mRNA/kg. Six hours after administration, the mice were euthanized, and their organs were collected to measure Fluc activity (RLU/mg protein) (N = 2 or 4).

[7] = test system: various tissues; assay: Fluc activity in various tissues of mice administered Fluc mRNA-loaded lipid nanoparticles; type: in vivo, BALB/c mice; details: Example 31, Fig. 10; Fluc mRNA-loaded lipid nanoparticles containing 3 mol% DSPC; N = 3
Experimental: as §2
as §3, with “protein. […]” for “protein.”

[8] = test system: factor VII (F7); details: mouse liver; siRNA; cited from earlier work
[9] = Apparent pKa of lipid nanoparticles (TNS)
Experimental: as §4

[10] = test system: spleen; assay: Fluc activity in the spleen of mice administered Fluc mRNA-loaded lipid nanoparticles; type: in vivo, BALB/c mice; details: Example 22, Fig. 1; TxT/DSPC/chol/PEG-DMG=50/15/35/1.5 (mol%); 0.1 mg mRNA/kg intravenous; six hours after administration; comparison among TxT lipids
Experimental: as §2
as §3, with “protein. […]” for “protein.”

[11] = Table 3, Fluc mRNA-loaded lipid nanoparticles, TxT/DSPC/chol/PEG-DMG=50/3/47/1.5 (mol%)
[12] = Table 5, EGFP mRNA-loaded lipid nanoparticles, TxT/DSPC/chol/PEG-DMG=50/3/47/1.5 (mol%), total flow rate 3.0 mL/min
[13] = Table 8 (Example 32), lipid nanoparticles for TTR-targeted genome editing, Cas9-mRNA and TTR-gRNA 1:2 (N/P = 6.0), TxT/DSPC/chol/PEG-DMG = 50/3/47/1.5 (mol%)
[14] = Table 4, Fluc mRNA-loaded lipid nanoparticles, TxT-5-5A14/DSPC/chol/PEG-DMG=50/3/47/1.5, SM-102, ALC-0315 or MC3/DSPC/chol/PEG-DMG=50/10/40/1.5 (mol%)
[15] = Table 1, Fluc mRNA-loaded lipid nanoparticles, TxT/DSPC/chol/PEG-DMG=50/15/35/1.5 (mol%)

ζ-potential [1, 11] [mV]	ζ-potential [1, 12] [mV]	mRNA concentration [2, 11] [µg/µL]	mRNA encapsulation rate [2, 11] [%]	mRNA concentration [2, 12] [µg/µL]	mRNA encapsulation rate [2, 12] [%]	Pdl [3, 11]	number average particle size [3, 11] [nm]	ζ-average particle size [3, 11] [nm]	Pdl [3, 12]	number average particle size [3, 12] [nm]	ζ-average particle size [3, 12] [nm]	pKa [4]	Molecule	fluorescence of EGFP in the liver tissues [5]	ED50 in factor VII (F7) knockdown [8] [mg siRNA/kg]	other results
-8.9	-4.2	0.022	96.5	0.021	97.3	0.14	92.2	133.1	0.10	85.3	129.5	6.68	2-(6-(didodecylamino)-2,6-dioxohexyl)-2-(3-(piperidin-1-yl)propanamido)propane-1,3-diyl bis(5-(didodecylamino)-5-oxopentanoate) [TxT-5-5A24]	fluorescence of EGFP was observed		ζ-potential [1, 13]: -6.5 mV; mRNA concentration [2, 13]: 0.541 µg/µL; mRNA encapsulation rate [2, 13]: 98.4%; average particle diameter, comparison among TxT lipids ([3]; Example 32, Table 8, lipid nanoparticles for TTR-targeted genome editing): smallest average particle diameter; Pdl [3, 13]: 0.12; number average particle size [3, 13]: 53.1 nm; ζ-average particle size [3, 13]: 73.8 nm; gene expression in hepatocytes [5]: notably high levels of gene expression
-11.2	-6.0	0.019	96.0	0.020	97.9	0.22	61.6	103.7	0.07	59.1	81.4	4.99	CCCCC(CC)CN(CC(CC)CCCC)C(=O)CCCC(=O)OCC(COC(=O)CCCC(=O)N(CC(CC)CCCC)CC(CC)CCCC)(COC(=O)CCCC(=O)N(CC(CC)CCCC)CC(CC)CCCC)NC(=O)CCN1CCCCC1 (stereo not drawn) [TxT-5-5A16b]	fluorescence of EGFP was observed		

Continued, molecule first:

Molecule	ζ-potential [1, 11] [mV]	ζ-potential [1, 12] [mV]	mRNA concentration [2, 11] [µg/µL]	mRNA encapsulation rate [2, 11] [%]	mRNA concentration [2, 12] [µg/µL]	mRNA encapsulation rate [2, 12] [%]	Pdl [3, 11]	number average particle size [3, 11] [nm]	ζ-average particle size [3, 11] [nm]	Pdl [3, 12]	number average particle size [3, 12] [nm]	ζ-average particle size [3, 12] [nm]	pKa [4]	fluorescence of EGFP in the liver tissues [5]	ED50 in factor VII (F7) knockdown [8] [mg siRNA/kg]	other results
2-((2-(2-((diheptylamino)methyl)cyclohexyl)acetoxy)methyl)-2-(3-(piperidin-1-yl)propanamido)propane-1,3-diyl bis(2-(diheptylcarbamoyl)cyclohexane-1-carboxylate) [TxT-5-4(6)A14]																Fluc activity in the liver relative to spleen and lung [6]: particularly high activity confirmed in the liver; Fluc activity in the liver, spleen, and lung [7]: Fluc activity was observed in the organs, i.e., liver, spleen, and lungs
CCCCC/C=C\C/C=C\CCCCCCCCC(CCCCCCCC/C=C\C/C=C\CCCCC)OC(=O)CCCN(C)C [MC3, DLin-MC3-DMA, reference compound]															0.005	ζ-potential [1, 14]: -6.8 mV; mRNA concentration [2, 14]: 0.021 µg/µL; mRNA encapsulation rate [2, 14]: 98.8%; Pdl [3, 14]: 0.20; number average particle size [3, 14]: 51.8 nm; ζ-average particle size [3, 14]: 83.6 nm; pKa [9, 14]: 6.23
CCCCCCN(CCCCCC)C(=O)CCCC(=O)OCC(COC(=O)CCCC(=O)N(CCCCCC)CCCCCC)(COC(=O)CCCC(=O)N(CCCCCC)CCCCCC)NC(=O)CCN1CCCCC1 [TxT-5-5A12, 2-(((5-(dihexylamino)-5-oxopentanoyl)oxy)methyl)-2-(3-(piperidin-1-yl)propanamido)propane-1,3-diyl bis(5-(dihexylamino)-5-oxopentanoate)]	-6.7	-9.4	0.019	85.9	0.019	95.5	0.10	124.5	155.2	0.13	80.2	114.4		fluorescence of EGFP was observed		ζ-potential [1, 15]: -6.7 mV; mRNA concentration [2, 15]: 0.019 µg/µL; mRNA encapsulation rate [2, 15]: 85.9%; Pdl [3, 15]: 0.08; number average particle size [3, 15]: 124.5 nm; ζ-average particle size [3, 15]: 155.2 nm; pKa ([9]; Table 1, apparent pKa of Fluc mRNA-loaded lipid nanoparticles, TxT/DSPC/chol/PEG-DMG=50/15/35/1.5 (mol%)): 6.44; pKa [9, 11]: 6.58; Fluc activity in the spleen [10]: highest Fluc activity in the spleen
CCCCC/C=C\C/C=C\CCCCCCCCOC1(OCCCCCCCC/C=C\C/C=C\CCCCC)CCN(C)CC1 [YSK05]															0.06	
